Experimental data published in paper PMC8320979, “Probing the role of the residues in the active site of the transaminase from Thermobaculum terrenum” (PLoS ONE, 2021).

Tests used:
Experiment in all cases: pre-steady-state half-reaction of the PLP form, aldimine decrease at […] nm
Format in all cases: biochemical
[1] = target: T1, TaTT (transaminase from Thermobaculum terrenum) (Thermobaculum terrenum, UniProt D1CCW1, G40V/R42S/Y100F/S114R); conditions: mP3O1; 50 mM CHES pH 9.0, 40 °C; no amino acceptor; constant from kobs vs. substrate; read-out: pH 9.0, CHES buffer, 40°C / KD, / mM
T1 construct: gene ilvE; N-terminal His6TEV-tag, expressed in E. coli BL21(DE3)pLys; tag cut by TEV for crystals (309 visible residues, 5 N-terminal and 3 C-terminal residues invisible); functional dimer

[2] = target: T2, TaTT (transaminase from Thermobaculum terrenum) (Thermobaculum terrenum, UniProt D1CCW1, W31H/F38Y/G40V/R42S/Y100F); conditions: mP3O7; 50 mM Tris-HCl pH 8.0, 30 °C; no amino acceptor; constant from kobs vs. substrate; read-out: pH 8.0, Tris-HCl buffer, 30°C / KD, / mM
T2 construct: gene ilvE; N-terminal His6TEV-tag, expressed in E. coli BL21(DE3)pLys; tag cut by TEV for crystals (309 visible residues, 5 N-terminal and 3 C-terminal residues invisible); functional dimer

[3] = target: T3, TaTT (transaminase from Thermobaculum terrenum) (Thermobaculum terrenum, UniProt D1CCW1, G40V/R42S/Y100F); conditions: mP3; 50 mM CHES pH 9.0, 40 °C; no amino acceptor; constant from kobs vs. substrate; read-out: pH 9.0, CHES buffer, 40°C / KD, / mM
T3 construct: gene ilvE; N-terminal His6TEV-tag, expressed in E. coli BL21(DE3)pLys; tag cut by TEV for crystals (309 visible residues, 5 N-terminal and 3 C-terminal residues invisible); functional dimer

[4] = target: T4, TaTT (transaminase from Thermobaculum terrenum) (Thermobaculum terrenum, UniProt D1CCW1, G40V/Y100F); conditions: mP2; 50 mM CHES pH 9.0, 40 °C; no amino acceptor; constant from kobs vs. substrate; read-out: pH 9.0, CHES buffer, 40°C / KD, / mM
T4 construct: gene ilvE; N-terminal His6TEV-tag, expressed in E. coli BL21(DE3)pLys; tag cut by TEV for crystals (309 visible residues, 5 N-terminal and 3 C-terminal residues invisible); functional dimer

[5] = target: T5, TaTT (transaminase from Thermobaculum terrenum) (Thermobaculum terrenum, UniProt D1CCW1, S114R); conditions: mO1; 50 mM CHES pH 9.0, 40 °C; no amino acceptor; constant from kobs vs. substrate; read-out: pH 9.0, CHES buffer, 40°C / KD, / mM
T5 construct: gene ilvE; N-terminal His6TEV-tag, expressed in E. coli BL21(DE3)pLys; tag cut by TEV for crystals (309 visible residues, 5 N-terminal and 3 C-terminal residues invisible); functional dimer

[6] = target: T6, TaTT (transaminase from Thermobaculum terrenum) (Thermobaculum terrenum, UniProt D1CCW1); conditions: 50 mM CHES pH 9.0, 40 °C; no amino acceptor; constant from kobs vs. substrate; read-out: pH 9.0, CHES buffer, 40°C / KD, / mM
T6 construct: gene ilvE; N-terminal His6TEV-tag, expressed in E. coli BL21(DE3)pLys; tag cut by TEV for crystals (309 visible residues, 5 N-terminal and 3 C-terminal residues invisible); functional dimer
T6 sequence (D1CCW1 entry or part of it): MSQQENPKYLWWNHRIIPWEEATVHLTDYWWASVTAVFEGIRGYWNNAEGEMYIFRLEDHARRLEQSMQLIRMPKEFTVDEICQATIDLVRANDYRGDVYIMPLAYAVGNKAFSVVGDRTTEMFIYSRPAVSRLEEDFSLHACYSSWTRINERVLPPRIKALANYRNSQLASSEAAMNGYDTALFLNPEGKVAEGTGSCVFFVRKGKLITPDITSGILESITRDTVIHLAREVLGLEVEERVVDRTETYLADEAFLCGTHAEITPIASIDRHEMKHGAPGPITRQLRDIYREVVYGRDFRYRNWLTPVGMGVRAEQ

T2 sequence (D1CCW1 entry or part of it W31H/F38Y/G40V/R42S/Y100F): as the sequence (D1CCW1 entry or part of it) above, with W31H, F38Y, G40V, R42S, Y100F counted along it
T4 sequence (D1CCW1 entry or part of it G40V/Y100F): as the sequence (D1CCW1 entry or part of it) above, with G40V, Y100F counted along it
T5 sequence (D1CCW1 entry or part of it S114R): as the sequence (D1CCW1 entry or part of it) above, with S114R counted along it
T1 sequence (D1CCW1 entry or part of it G40V/R42S/Y100F/S114R): as the sequence (D1CCW1 entry or part of it) above, with G40V, R42S, Y100F, S114R counted along it
T3 sequence (D1CCW1 entry or part of it G40V/R42S/Y100F): as the sequence (D1CCW1 entry or part of it) above, with G40V, R42S, Y100F counted along it

Kd [1]: 1.5 ± 0.5 mM
Kd [2]: 44 ± 8 mM
Kd [3]: 2.6 ± 0.4 mM
Kd [4]: 13 ± 2 mM
Kd [5]: 3.3 ± 1.2 mM
Kd [6]: 81 ± 8 mM
Structure (SMILES): C[C@@H](N)c1ccccc1 [R-PEA, (R)-(+)-1-phenylethylamine]
